In patent US20230407304A1, “USE OF MICRORNA INHIBITION TO PREVENT AND TREAT OSTEOARTHRITIS AND OTHER INFLAMMATORY DISEASES” (VIRGINIA COMMONWEALTH UNIVERSITY, priority 2020, published 2023):

Tests used:
[1] = test system: articular chondrocytes; test: miR-122 / miR-451 transfection of articular chondrocytes in presence and absence of IL-1β; type: cell-based, rat; conditions: miR transfection plus IL-1β stimulation
Text: The following Examples with these microRNAs established their functions in articular chondrocytes in the presence and absence of the inflammatory cytokine IL-1β. Since IL-1β signaling is a major contributor of OA, a well-established model of creating an osteoarthritic phenotype in vitro is to stimulate cell cultures with this cytokine. This study first established that both these microRNAs were elevated in OA in the bilateral ACLT model.
The miR-451 miR (SEQ ID NO:10) was originally chosen as a control miR but it had surprising and very specific functions. […] A series of transfections and inhibition experiments with these microRNAs confirmed that these changes were due to the microRNAs themselves.

[2] = test system: rat articular chondrocytes (rArCs); test: miR mimic or inhibitor transfection of rArCs with or without TNF-α stimulation; type: cell-based
Method: FIGS. 7A-7F show assessment of miR-122 and miR-451 transfection or inhibition on TNF-α stimulated rat articular chondrocytes. rArCs were transfected at 60% confluence with miR-122, miR-451, miR-122-inhibitor (122-Inh), miR-451 inhibitor (451-Inh), or an empty vehicle (Lipo) for 24 hours followed by 24 hours with or without 10 ng/mL TNF-α stimulation. (FIG. 7A, 7D) Total DNA was measured from the cell monolayer and (FIG. 7B, 7E) MMP-13 and (FIG. 7C, 7F) PGE2 proteins were measured from the conditioned media. Groups not sharing a letter (A, B or C over bar) are statistically significant using an alpha=0.05.
Rat articular chondrocytes (rArCs) were isolated using a previously established protocol (see Scott, supra). Briefly, rArCs were isolated from femoral condyles and tibial plateaus from 100-125 g male Sprague Dawley rats. Cartilage was sterilely sliced from the articular surfaces using a surgical blade and placed in Dulbecco's modification of Eagle's medium with 1 g/L glucose, 50 U/mL penicillin and streptomycin (pen-strep) (DMEM). After removing DMEM, cartilage was incubated with 0.05% trypsin (20 mins, 37° C.), rinsed with DMEM (50 U/mL pen-strep, 20 mins, 37° C.), and then digested with sterile-filtered 0.03% collagenase type II solution (Worthington Biochemical, Lakewood, NJ) in Hank's balanced salt solution (16 hrs, 37° C.). Digestion was quenched with an equal volume of DMEM containing 10% fetal bovine serum (FBS) and 50 U/mL pen-strep, strained through a 40 μm strainer (Greiner Bio-one, North Carolina), spun down at 500×g for 10 mins and plated at a seeding density of 15,000 cells/cm^2. These cells are at passage 0. All experiments used cells at passage 1.
rArCs were plated at a seeding density of 15,000 cells/cm^2 and fed with DMEM supplemented with 10% FBS and 50 U/mL pen-strep. Media were changed 24 hours after plating and then every 48 hours. After treatments described below, conditioned media were collected, centrifuged at 1,000×g for 10 mins to remove cellular debris, aliquoted, and stored at −80° C. until assayed. Cell monolayers were rinsed twice with 1 mL of 1×PBS, lysed in 500 μL of 0.05% Triton X-100, and frozen for later DNA analysis. MMP-13 (ANASpec, Fremont, CA) and PGE2 (R&D Systems) were measured in the conditioned media by a microplate reader at ex/em 490 nm/520 nm, and 450 nm absorbance, respectively, in accordance with the manufacturer's directions. Data were normalized to the DNA content of the cell monolayer. Cell layers were thawed, and mechanically lysed by ultrasonication (40V, 10s/well) (VCX-120; Vibra-cell, Newtown, CT) and DNA was measured using QuantiFluor dsDNE system kit (Promega, Madson, WI) and quantified on a fluorescence plate reader at ex/em 504 nm/531 nm. […]

[3] = test system: chondrocytes; conditions: in vitro studies (Scott; Tang et al.); cited from earlier work
[4] = test system: resting zone and growth zone chondrocytes; test: microRNA transfection of costochondral resting zone and growth zone chondrocytes; conditions: preliminary testing

miR-451: mirVana miRNA mimic rno-miR-451-5p; AAACCGUUACCAUUACUGAGUU (AAACCGUUACCAUUACUGAGUU; listed as RNA, chemistry not given here)
IL-1β-stimulated MMP-13 [1]: exacerbated production in MMP-13 and PGE2
IL-1β-stimulated PGE2 [1]: exacerbated production in MMP-13 and PGE2
growth factor VEGF [1]: decreased the growth factor VEGF
inflammatory mediators, cytokines, chemokines (IL-1α, IL-2, IL-4, IL-6, GM-CSF, MIP-1A; RANTES for miR-122) [1]: increased the inflammatory mediators, cytokines, chemokines
change of total DNA on TNF-α treatment in transfected cells ([2]; 14.5 nM mimic 24 hours, then 10 ng/mL TNF-α 24 hours): did not change total DNA
total DNA after mimic transfection ([2]; 14.5 nM mimic, 24 hours, vs Lipo control): reduced total DNA compared to all groups
apoptosis and cell viability in chondrocytes [3]: does not induce apoptosis or compromise cell viability
proliferation ([4]; transfected costochondral resting zone and growth zone chondrocytes): decrease in total DNA and proliferation
total DNA ([4]; transfected growth plate chondrocytes): decrease in total DNA and proliferation
